Experimental data as given in US8252290B2, “Herbal composition for treatment of insomnia and other related disorders and a method of preparing the same” (Vita Green Health Products Company Limited, priority 2008, dated 2012).
Where a name gives a salt, the structure may show the parent alone.

What was measured:
Format in all cases: in vivo
[1] = test system: mice; assay: Elevated Plus Maze Test; details: 2 mg/kg oral
Protocol: (§1) The following three tests on mice were conducted to investigate the anti-depressant and anti-anxiety activities of the herbal composition of the present invention.
(§2) In all these tests, the test item was the herbal composition as described in Table 2 in the form of a powder. The reference item was Imipramine hydrochloride manufactured by Sigma-Aldrich, USA (for forced swimming and tail suspension tests), and Diazepam tablets supplied by Tianjin Lisheng Pharmaceutical Co. Ltd, China (for elevated plus maze test). Male mice weighing 18-22 g at the start of the study were obtained from the Guangdong Medical Laboratory Animal Center, China.
(§3) At the beginning of each test, the test item was administrated at three dose levels of 69, 208, and 624 mg per kg of mouse by oral route (gastric gavage). For the Forced Swimming Test and Tail Suspension Test, Imipramine was administrated at the dose level of 20 mg per kg of mouse by oral route (gastric gavage), whereas Diazepam was administrated at the dose level of 2 mg per kg of mouse by oral route (gastric gavage). The Control group only received physiological saline orally by gastric gavage.
In this common test for assessing anxiety, the mouse is initially placed in the center of an elevated plus-shaped maze consisting of 4 arms (2 open arms & 2 enclosed arms), with its head facing one of the two open arms. The basic measure is to determine the unconditioned response of the tested mouse to a potentially dangerous environment and the preference of the tested mouse for dark, enclosed places over bright places, and exposed places. Typically, the tested mice would avoid entering into open arms due to anxiety, and mice administrated with anxiolytic […] treatments would have decreased aversion to heights and open spaces.
In this test, two batches of mice were used and in each batch, the mice were allotted at random to five groups, each consisting of ten animals.
The ratio of open arm entry is the frequency of the times the mice entering the open arms to the total frequency of entry into both open and enclosed arms (in percentages). Likewise, the ratio of time spent in open arms is the proportion of time spent by the mice in the open arms to the total times spent in both open and enclosed arms (in percentages).

[2] = test system: mice; assay: Forced Swimming Test; details: 20 mg/kg oral
Source text: After an initial period of vigorous activity, the mice adopt a characteristic immobile posture which is readily identifiable.

[3] = test system: mice; assay: Tail Suspension Test; details: 20 mg/kg oral
Protocol: as §1, §2, §3
When a mouse is suspended by its tail, its basic instinct first drives him to struggle, but this inescapable stress will eventually force it to develop an immobile posture. […]

CN1C(=O)CN=C(c2ccccc2)c2cc(Cl)ccc21 [Diazepam] was tested, and the Head dipping ([1]; First Batch, Control 16.2 ± 4.61) was 20.67 ± 10.42 times, the “Ratio of time spent in open arms” value ([1]; First Batch, p<0.01 vs Control 31.94 ± 10.82) was 50.51 ± 10.58 % and the “Ratio of open arms entry” value ([1]; First Batch, p<0.01 vs Control 36.16 ± 6.13) was 51.27 ± 10.08 %. For the same compound, the Head dipping ([1]; Second Batch, p<0.01 vs Control 14.0 ± 4.64) was 21.5 ± 6.15 times, the “Ratio of time spent in open arms” value ([1]; Second Batch, p<0.01 vs Control 29.82 ± 8.88) was 47.52 ± 12.35 % and the “Ratio of open arms entry” value ([1]; Second Batch, p<0.01 vs Control 33.66 ± 7.95) was 52.48 ± 9.97 %.

With CN(C)CCCN1c2ccccc2CCc2ccccc21 [Imipramine, Imipramine hydrochloride] the Time of immobility ([2]; First Batch, p<0.01 vs Control 93.19 ± 31.07) was 43.92 ± 17.63 s, the Time of immobility ([2]; Second Batch, p<0.01 vs Control 110.61 ± 28.03) was 59.90 ± 17.40 s and the Time of immobility ([3]; First Batch, p<0.01 vs Control 115.89 ± 39.27) was 60.08 ± 16.67 s. It also gave a Time of immobility ([3]; Second Batch, p<0.01 vs Control 100.76 ± 33.49) of 52.66 ± 17.05 s.
